Assay results as given in US20240398787A1, “TREATMENT OF MAJOR DEPRESSIVE DISORDER” (AbbVie Inc., priority 2021, published 2024).

How the values were obtained:
[1] = system: patients with major depressive disorder (MDD); assay: Clinical Global Impressions-Severity (CGI-S) score, Clinical Study A; type: in vivo, human; conditions: MMRM; for LS mean change from baseline, CGI-S score / LSMD vs placebo, CGI-S score: week 6
Method: (§1) A global, multicenter, randomized, double-blind (DB), placebo-controlled, parallel-group, fixed-dose study compared cariprazine 1.5 mg/day and cariprazine 3 mg/day with placebo as an adjunctive treatment to ongoing ADT in outpatients with a diagnosis of MDD (via the Diagnostic and Statistical Manual of Mental Disorders, Fifth Edition [DSM-5]) having an inadequate response, as measured by the modified Antidepressant Treatment Response Questionnaire (ATRQ), to 1 to 3 antidepressants administered during the current episode at an adequate dose and adequate duration. Adequate dose was defined as a dose above the minimum labeled dose (per package insert). Adequate duration was defined as continuous ADT treatment for at least 6 weeks, with a minimum of 3 of 6 weeks above the minimal dose.
(§2) The study consisted of up to 14 days screening (with up to an additional 7 days of needed) and washout of prohibited medications followed by 6 weeks of double-blind (DB) treatment followed by a 4-week safety follow-up. At the end of the screening period, patients meeting the entry criteria for the study were randomized (1:1:1) to 1 of 3 double-blind treatment groups. Study treatment groups were: cariprazine 1.5 mg/day+antidepressant therapy and cariprazine 3 mg/day+antidepressant therapy. The control group received matching placebo+antidepressant therapy.
(§3) Dosage/Dose Regimen: Investigational product (cariprazine or placebo) in the form of capsules packaged in blister packs will be provided. No investigational product was administered during the screening/washout period; patients continued the same antidepressant and dose they were on at screening. Patients were taking more than one antidepressant at screening, regardless of the indication, discontinued all other antidepressants prior to baseline (Visit 2). During the double-blind treatment period (6 weeks), patients were administered 1 capsule orally per day in addition to their ongoing ADT. Patients in the 1.5 mg/day+ADT arm were administered 1.5 mg+ADT starting at Visit 2 (Week 0). Patients in the 3 mg/day+ADT arm were administered 1.5 mg+ADT starting at Visit 2 (Week 0) for 2 weeks and then titrate to 3 mg/day+ADT starting at Visit 4 (Week 2). Patients were supplied with identically appearing capsules of either cariprazine 1.5 mg, cariprazine 3 mg, or placebo.
(§4) A randomized, double-blind, placebo-controlled, multicenter trial with 759 participants was conducted in United States, Bulgaria, Estonia, Germany, Hungary, Ukraine, and the United Kingdom. Following a screening period of up to 14 days (with up to an additional 7 days if needed), which included a washout of prohibited psychotropic medications except for ongoing ADT, patients with a partial response to their antidepressant monotherapy were randomized into three treatment groups (1:1:1). One group received cariprazine 1.5 mg/d+ADT, one received cariprazine 3.0 mg/d+ADT, and one group received placebo+ADT. All participants randomized to cariprazine began on 1.5 mg/d; cariprazine 1.5 mg/d patients remained at that dosage, while cariprazine 3.0 mg/d patients received 1.5 mg/d for 2 weeks and increased to 3.0 mg/d on day 15.
The primary and secondary efficacy parameters were change from baseline to week 6 in Montgomery-Åsberg Depression Rating Scale (MADRS) total score and Clinical Global Impressions-Severity (CGI-S) score, respectively (screening, baseline, and weeks 1, 2, 4, and 6). Additional efficacy parameters (screening, baseline, and ≥1 double-blind visit) included: MADRS response (≥50% MADRS total score reduction) and remission (MADRS total score ≤10); change from baseline in HAMD-17 total score and Hamilton Anxiety Rating Scale (HAM-A) total score (32); and Clinical Global Impressions-Improvement (CGI-I) score and response (CGI-I score ≤2).
The CGI-S (Guy 1976) is a clinician-rated scale that measures the overall severity of a patient's illness in comparison with the severity in other patients the physician has observed. […]

[2] = system: patients with major depressive disorder (MDD); assay: Adverse events and discontinuations during double-blind treatment period, Clinical Study A; type: in vivo, human; conditions: for TEAE: Akathisia / TEAE: Headache / TEAE: Insomnia / TEAE: Nausea / TEAE: Somnolence: N = 252; for Deaths: safety population; for Treatment-emergent adverse events (TEAEs): safety population N = 252
Method: as §1, §2, §3
as §4, with “Following” for “A randomized, double-blind, placebo-controlled, multicenter trial with 759 participants was conducted in United States, Bulgaria, Estonia, Germany, Hungary, Ukraine, and the United Kingdom. Following”
Table 15 summarizes the most frequent TEAEs occurring in ≥5% in any treatment group, and Table 16 summarizes changes in weight. An AE was considered a treatment-emergent adverse event (TEAE) if the AE began or worsened (increased in severity or became serious) on or after the first dose of double-blinded investigational product.

[3] = 1.5 mg/day + ADT, double-blind period
[4] = 1.5 mg/day + ADT, randomized population N = 252
[5] = 3.0 mg/day + ADT, double-blind period
[6] = 3 mg/day + ADT, randomized population N = 253

## CN(C)C(=O)N[C@H]1CC[C@H](CCN2CCN(c3cccc(Cl)c3Cl)CC2)CC1 [Cariprazine, trans-N-{4-[2-[4-(2,3-dichlorophenyl)piperazin-1-yl]ethyl]cyclohexyl}-N′,N′-dimethylurea]
[1]; 1.5 mg/day + ADT, week 1
  LS Mean (SE) change from baseline, CGI-S score: −0.3 (0.1)
  LSMD (95% CI) vs placebo + ADT, CGI-S score: −0.1 (−0.2, 0)
[1]; 1.5 mg/day + ADT, week 2
  LS Mean (SE) change from baseline, CGI-S score: −0.7 (0.1)
  LSMD (95% CI) vs placebo + ADT, CGI-S score: −0.1 (−0.2, 0.1)
[1]; 1.5 mg/day + ADT, week 4
  LS Mean (SE) change from baseline, CGI-S score: −1.1 (0.1)
  LSMD (95% CI) vs placebo + ADT, CGI-S score: −0.3 (−0.4, −0.1)
[1]; 1.5 mg/day + ADT
  LS mean change from baseline, CGI-S score: −1.4 (0.1)
  LSMD vs placebo, CGI-S score: −0.3 (−0.5, −0.1)
[1]; 3 mg/day + ADT, week 1
  LS Mean (SE) change from baseline, CGI-S score: −0.3 (0.1)
  LSMD (95% CI) vs placebo + ADT, CGI-S score: 0 (−0.1, 0.1)
[1]; 3 mg/day + ADT, week 2
  LS Mean (SE) change from baseline, CGI-S score: −0.6 (0.1)
  LSMD (95% CI) vs placebo + ADT, CGI-S score: 0 (−0.2, 0.1)
[1]; 3 mg/day + ADT, week 4
  LS Mean (SE) change from baseline, CGI-S score: −1.0 (0.1)
  LSMD (95% CI) vs placebo + ADT, CGI-S score: −0.1 (−0.3, 0.1)
[1]; 3 mg/day + ADT
  LS mean change from baseline, CGI-S score: −1.3 (0.1)
  LSMD vs placebo, CGI-S score: −0.2 (−0.4, 0)
[2]; 1.5 mg/day + ADT
  TEAE: Akathisia: 13 (5.2) n (%)
  TEAE: Headache: 22 (8.7) n (%)
  TEAE: Insomnia: 18 (7.1) n (%)
  TEAE: Nausea: 20 (7.9) n (%)
  TEAE: Somnolence: 13 (5.2) n (%)
[2]; [3]
  Any Extrapyramidal Symptoms (EPS) TEAEs: 25 (9.9) n (%)
  Treatment-emergent Serious AE (TESAE): 1 (0.4) n (%)
  Deaths: 0 n (%)
  Treatment-emergent adverse events (TEAEs): 125 (49.6) n (%)
[2]; [4]
  Premature discontinuation due to Death: 0 n (%)
  Premature discontinuation due to Lack of Efficacy: 2 (0.8) n (%)
[2]; 3.0 mg/day + ADT
  TEAE: Akathisia: 20 (7.9) n (%)
  TEAE: Headache: 11 (4.4) n (%)
  TEAE: Insomnia: 16 (6.3) n (%)
  TEAE: Nausea: 16 (6.3) n (%)
  TEAE: Somnolence: 11 (4.4) n (%)
[2]; [5]
  Any Extrapyramidal Symptoms (EPS) TEAEs: 38 (15.1) n (%)
  TEAE leading to discontinuation from study: 18 (7.1) n (%)
  Treatment-emergent Serious AE (TESAE): 1 (0.4) n (%)
  Deaths: 0 n (%)
  Treatment-emergent adverse events (TEAEs): 124 (49.2) n (%)
[2]; [6]
  Premature discontinuation due to Adverse Event: 18 (7.1) n (%)
  Premature discontinuation due to Death: 0 n (%)
  Premature discontinuation due to Lack of Efficacy: 0 n (%)
[2]; six-week study period
  Most common adverse events occurring at ≥5% in the cariprazine groups: akathisia, nausea, insomnia, headache and somnolence
  Safety results (overall): no new safety signals identified
